Laboratory results from patent US9556150B2, “Inhibitors of bruton's tyrosine kinase” (Hoffmann-La Roche Inc., priority 2013, dated 2017).
Where a name gives a salt, the structure may show the parent alone.

Biological target: Bruton's Tyrosine Kinase (BTK), inactivated state (Homo sapiens (Human), UniProt Q06187)
Test: Bruton's Tyrosine Kinase (BTK) Inhibition TR-FRET (Time Resolved FRET) competition assay
Format: binding
Conditions: TR-FRET competition with Kinase Tracer 178, BTK-Eu complex, 18-24 h at 14° C.
Procedure: Bruton's Tyrosine Kinase (BTK) Inhibition TR-FRET (Time Resolved FRET) Assay
This BTK competition assay measures compound potency (IC50) for the inactivated state of Bruton's Tyrosine Kinase using FRET (Förster/Fluorescence Resonance Energy Transfer) technology. The BTK-Eu complex was incubated on ice one hour prior to use at a starting concentration of 50 nM BTK-Bioease™: 10 nM Eu-streptavidin (Perkin-Elmer Catalog#AD0062). The assay buffer consisted of 20 mM HEPES (pH 7.15), 0.1 mM DTT, 10 mM MgCl2, 0.5 mg/ml BSA with 3% Kinase Stabilizer (Fremont Biosolutions, Catalog #STB-K02). After 1 h, the reaction mixture from above was diluted 10 fold in assay buffer to make 5 nM BTK: 1 nM Eu-Streptavidin complex (donor fluorophore). 18 μl of a mixture of 0.11 nM BTK-Eu and 0.11 nM Kinase Tracer 178 (Invitrogen, Catalog #PV5593,) with BTK-Eu alone as no negative control, was then dispensed into 384-well flat bottom plates (Greiner, 784076). Compounds to be tested in assay were prepared as 10× concentrations and serial dilution in half-log increments was performed in DMSO so as to generate 10 point curves. To initiate the FRET reaction, compounds prepared as 10× stock in DMSO was added to the plates and the plates were incubated 18-24 h at 14° C.
After the incubation the plates were read on a BMG Pherastar Fluorescent plate reader (or equivalent) and used to measure the emission energy from the europium donor fluorophore (620 nm emission) and the FRET (665 nm emission). The negative control well values were averaged to obtain the mean minimum. The positive “no inhibitor” control wells were averaged to obtain the mean maximum. Percent of maximal FRET was calculated using following equation: % max FRET=100×[(FSR cmpd−FSR mean min)/(FSR mean max−FSR mean min)]
where FSR=FRET Signal ratio. % Max FRET curves were plotted in Activity Base (Excel) and the IC50(%), hill slope, z′ and % CV were determined. The mean IC50 and standard deviation will be derived from duplicate curves (singlet inhibition curves from two independent dilutions) using Microsoft Excel.
Representative compound data for this assay are listed below in Table II.

Bruton's Tyrosine Kinase (BTK), inactivated state, sequence (Q06187 whole entry): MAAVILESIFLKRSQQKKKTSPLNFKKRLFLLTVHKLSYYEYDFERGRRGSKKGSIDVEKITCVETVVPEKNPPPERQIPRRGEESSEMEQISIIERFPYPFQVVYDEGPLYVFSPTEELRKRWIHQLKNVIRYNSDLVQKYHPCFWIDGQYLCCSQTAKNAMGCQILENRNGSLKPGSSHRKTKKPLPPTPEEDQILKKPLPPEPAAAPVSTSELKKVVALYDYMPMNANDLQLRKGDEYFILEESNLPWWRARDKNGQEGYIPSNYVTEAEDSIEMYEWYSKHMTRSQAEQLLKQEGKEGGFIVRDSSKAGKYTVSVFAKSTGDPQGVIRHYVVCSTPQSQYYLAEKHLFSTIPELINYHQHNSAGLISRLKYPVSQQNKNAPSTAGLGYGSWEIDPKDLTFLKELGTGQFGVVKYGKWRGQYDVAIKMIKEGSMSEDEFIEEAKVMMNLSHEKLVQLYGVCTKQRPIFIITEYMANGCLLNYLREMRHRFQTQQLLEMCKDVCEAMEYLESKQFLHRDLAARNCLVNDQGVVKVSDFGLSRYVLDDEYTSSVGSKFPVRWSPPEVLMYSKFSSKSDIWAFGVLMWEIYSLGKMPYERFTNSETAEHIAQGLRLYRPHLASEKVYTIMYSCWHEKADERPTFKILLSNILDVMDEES

SMILES	IC50
Cc1cc(Oc2ccccc2)ncc1-n1ncc(C(=O)c2cc3cc(C(=O)N4CCOCC4)ccc3[nH]2)c1N [Example I-3, [5-Amino-1-(4-methyl-6-phenoxy-pyridin-3-yl)-1H-pyrazol-4-yl]-[5-(morpholine-4-carbonyl)-1H-indol-2-yl]-methanone]	25 nM
Nc1c(C(=O)c2cc3cc(C(=O)N4CCOCC4)ccc3[nH]2)cnn1-c1ccc(Oc2ccccc2)cc1 [Example I-1, [5-Amino-1-(4-phenoxy-phenyl)-1H-pyrazol-4-yl]-[5-(morpholine-4-carbonyl)-1H-indol-2-yl]-methanone]	6.8 nM
N#Cc1cccc(Oc2ccc(-n3ncc(C(=O)c4cc5cc(C(=O)O)ccc5[nH]4)c3N)c(Cl)c2)c1 [Example I-34, 2-{5-Amino-1-[2-chloro-4-(3-cyano-phenoxy)-phenyl]-1H-pyrazole-4-carbonyl}-1H-indole-5-carboxylic acid]	25.1 nM
Cc1cc(OCc2ccc(Cl)cc2)ccc1-n1ncc(C(=O)c2cc3cc(C(=O)N4CCOCC4)ccc3[nH]2)c1N [Example I-27, {5-Amino-1-[4-(4-chloro-benzyloxy)-2-methyl-phenyl]-1H-pyrazol-4-yl}-[5-(morpholine-4-carbonyl)-1H-indol-2-yl]-methanone]	3.7 nM
Nc1c(C(=O)c2cc3cc(C(=O)N4CCOCC4)ccc3[nH]2)cnn1-c1ccc(Oc2ccccc2F)nc1 [Example I-9, {5-Amino-1-[6-(2-fluoro-phenoxy)-pyridin-3-yl]-1H-pyrazol-4-yl}-[5-(morpholine-4-carbonyl)-1H-indol-2-yl]-methanone]	220 nM
Cc1cc(Oc2cccc(C#N)c2)ccc1-n1ncc(C(=O)c2cc3cc(C(=O)NCCN)ccc3[nH]2)c1N [Example I-36, 2-{5-Amino-1-[4-(3-cyano-phenoxy)-2-methyl-phenyl]-1H-pyrazole-4-carbonyl}-H-indole-5-carboxylic acid (2-amino-ethyl)-amide]	5 nM
CN(C)C(=O)c1ccccc1Oc1ccc(-n2ncc(C(=O)c3cc4cc(C(=O)N5CCC(N(C)C(=O)OC(C)(C)C)C5)ccc4[nH]3)c2N)c(Cl)c1 (stereo not drawn) [Example I-52, [1-(2-{5-Amino-1-[2-chloro-4-(2-dimethylcarbamoyl-phenoxy)-phenyl]-1Hpyrazole-4-carbonyl}-1H-indole-5-carbonyl)-pyrrolidin-3-yl]-methyl-carbamic acid tert-butyl ester]	17 nM
Nc1c(C(=O)c2cc3cc(C(=O)N4CCOCC4)ccc3[nH]2)cnn1-c1ccc(Oc2cc(F)ccc2F)nc1 [Example I-13, {5-Amino-1-[6-(2,5-difluoro-phenoxy)-pyridin-3-yl]-1H-pyrazol-4-yl}-[5-(morpholine-4-carbonyl)-1H-indol-2-yl]-methanone]	530 nM
CN1CCN(C(=O)c2ccc3[nH]c(C(=O)c4cnn(-c5ccc(Oc6ccccc6C(=O)N(C)C)cc5Cl)c4N)cc3c2)CC1 [Example I-46, 2-(4-{5-Amino-4-[5-(4-methyl-piperazine-1-carbonyl)-1H-indole-2-carbonyl]-pyrazol-1-yl}-3-chloro-phenoxy)-N,N-dimethyl-benzamide]	4.2 nM
CN1CCN(C(=O)c2ccc3[nH]c(C(=O)c4cnn(-c5ccc(Oc6cccc(C(=O)N(C)C)c6)cc5Cl)c4N)cc3c2)CC1 [Example I-47, 3-(4-{5-Amino-4-[5-(4-methyl-piperazine-1-carbonyl)-1H-indole-2-carbonyl]-pyrazol-1-yl}-3-chloro-phenoxy)-N,N-dimethyl-benzamide]	32 nM
Nc1c(C(=O)c2cc3cc(C(=O)N4CCOCC4)ccc3[nH]2)cnn1-c1ccc(Oc2cccc(F)c2F)cc1 [Example I-12, {5-Amino-1-[4-(2,3-difluoro-phenoxy)-phenyl]-1H-pyrazol-4-yl}-[5-(morpholine-4-carbonyl)-1H-indol-2-yl]-methanone]	13 nM
NC(=O)c1cccc(Oc2ccc(-n3ncc(C(=O)c4cc5cc(C(=O)N6CCOCC6)ccc5[nH]4)c3N)c(Cl)c2)c1 [Example I-37, 3-(4-{5-Amino-4-[5-(morpholine-4-carbonyl)-1H-indole-2-carbonyl]-pyrazol-1-yl}-3-chloro-phenoxy)-benzamide]	50 nM
N#Cc1cccc(Oc2ccc(-n3ncc(C(=O)c4cc5cc(C(=O)N6CCOCC6)ccc5[nH]4)c3N)c(Cl)c2)c1 [Example I-30, 3-(4-{5-Amino-4-[5-(morpholine-4-carbonyl)-1H-indole-2-carbonyl]-pyrazol-1-yl}-3-chloro-phenoxy)-benzonitrile]	6.1 nM
Cc1cc(Oc2cccc(F)c2F)ccc1-n1ncc(C(=O)c2cc3cc(C(=O)O)ccc3[nH]2)c1N [Example I-26, 2-{5-Amino-1-[4-(2,3-difluoro-phenoxy)-2-methyl-phenyl]-1H-pyrazole-4-carbonyl}-1H-indole-5-carboxylic acid]	14 nM
COc1ccc(-n2ncc(C(=O)c3cc4cc(C(=O)N5CCOCC5)ccc4[nH]3)c2N)c(C)c1 [Example I-20, [5-Amino-1-(4-methoxy-2-methyl-phenyl)-1H-pyrazol-4-yl]-[5-(morpholine-4-carbonyl)-1H-indol-2-yl]-methanone]	150 nM
Cc1cc(Oc2ccccc2F)ccc1-n1ncc(C(=O)c2cc3cc(C(=O)N4CCOCC4)ccc3[nH]2)c1N [Example I-2, {5-Amino-1-[4-(2-fluoro-phenoxy)-2-methyl-phenyl]-1H-pyrazol-4-yl}-[5-(morpholine-4-carbonyl)-1H-indol-2-yl]-methanone]	4.6 nM
COC(=O)c1ccc2[nH]c(C(=O)c3cnn(-c4ccc(Oc5cccc(C#N)c5)cc4C)c3N)nc2c1 [Example I-38, 2-{5-Amino-1-[4-(3-cyano-phenoxy)-2-methyl-phenyl]-1H-pyrazole-4-carbonyl}-1H-benzoimidazole-5-carboxylic acid methyl ester]	150 nM
Nc1c(C(=O)c2cc3cc(C(=O)N4CCOCC4)ccc3[nH]2)cnn1-c1ccc(Oc2ccccc2)c(F)c1 [Example I-4, [5-Amino-1-(3-fluoro-4-phenoxy-phenyl)-1H-pyrazol-4-yl]-[5-(morpholine-4-carbonyl)-1H-indol-2-yl]-methanone]	12 nM

Compounds with a lower IC50, results first:

IC50	SMILES
2.5 nM	CN(C)C(=O)c1ccccc1Oc1ccc(-n2ncc(C(=O)c3cc4cc(C(=O)N5CCC(N(C)C)C5)ccc4[nH]3)c2N)c(Cl)c1 (stereo not drawn) [Example I-50, 2-(4-{5-Amino-4-[5-(3-dimethylamino-pyrrolidine-1-carbonyl)-1H-indole-2-carbonyl]-pyrazol-1yl}-3-chloro-phenoxy)-N,N-dimethyl-benzamide]
2.3 nM	Cc1cc(Oc2cccc(F)c2F)ccc1-n1ncc(C(=O)c2cc3cc(C(=O)N4CCOCC4)ccc3[nH]2)c1N [Example I-5]
2.6 nM	Cc1cc(Oc2ccccc2)ccc1-n1ncc(C(=O)c2cc3cc(C(=O)N4CCOCC4)ccc3[nH]2)c1N [Example I-7, {2-[5-Amino-1-(2-methyl-4-phenoxy-phenyl)-1H-pyrazole-4-carbonyl]-1H-indol-5-yl}-morpholin-4-yl-methanone]
3.2 nM	N#Cc1cccc(Oc2ccc(-n3ncc(C(=O)c4cc5cc(C(=O)O)ccc5[nH]4)c3N)c(Cl)c2)c1F [Example I-48, 2-{5-Amino-1-[2-chloro-4-(3-cyano-2-fluoro-phenoxy)-phenyl]-1H-pyrazole-4-carbonyl}-1H-indole-5-carboxylic acid]
0.46 nM	Nc1c(C(=O)c2cc3cc(C(=O)N4CCOCC4)ccc3[nH]2)cnn1-c1ccc(Oc2ccccc2)cc1Cl [Example I-14, [5-Amino-1-(2-chloro-4-phenoxy-phenyl)-1H-pyrazol-4-yl]-[5-(morpholine-4-carbonyl)-1H-indol-2-yl]-methanone]
3.5 nM	Cc1cc(Oc2cccc(Br)c2)ccc1-n1ncc(C(=O)c2cc3cc(C(=O)N4CCOCC4)ccc3[nH]2)c1N [Example I-17, (2-{5-Amino-1-[4-(3-bromo-phenoxy)-2-methyl-phenyl]-1H-pyrazole-4-carbonyl}-1H-indol-5-yl)-morpholin-4-yl-methanone]
1.7 nM	CNC1CCN(C(=O)c2ccc3[nH]c(C(=O)c4cnn(-c5ccc(Oc6ccccc6C(=O)N(C)C)cc5Cl)c4N)cc3c2)C1 (stereo not drawn) [Example I-53, acetic acid salt]
3.3 nM	CN(C)C(=O)c1ccccc1Oc1ccc(-n2ncc(C(=O)c3cc4cc(C(=O)N5CCOCC5)ccc4[nH]3)c2N)c(Cl)c1 [Example I-57, 2-(4-{5-Amino-4-[5-(morpholine-4-carbonyl)-1H-indole-2-carbonyl]-pyrazol-1-yl}-3-chloro-phenoxy)-N,N-dimethyl-benzamide]
1.8 nM	COCCNC(=O)c1ccc2[nH]c(C(=O)c3cnn(-c4ccc(Oc5cccc(F)c5F)cc4C)c3N)cc2c1 [Example I-35, 2-{5-Amino-1-[4-(2,3-difluoro-phenoxy)-2-methyl-phenyl]-1H-pyrazole-4-carbonyl}-1H-indole-5-carboxylic acid (2-methoxy-ethyl)-amide]
